In US6380387B1, “4-Pyrimidinyl-n-acyl-l phenylalanines” (Hoffmann-La Roche Inc., priority 1999, dated 2002):

Columns and labels:
VLA-4 (α4β1 integrin) [1] = target: T1, VLA-4 (α4β1 integrin) (Homo sapiens, UniProt P05556+P13612); test: Ramos (VLA-4)/VCAM-1 Cell-Based Screening Assay (cell adhesion); conditions: Calcein-AM labeled Ramos cells adhering to immobilized recombinant human VCAM-1
T1 construct: Ramos cells bearing cell-surface VLA-4; endogenous in cells; host or cells: Ramos cells
Protocol: Ramos (VLA-4)/VCAM-1 Cell-Based Screening Assay Protocol
Soluble recombinant human VCAM-1 (mixture of 5- and 7-Ig domain) was purified from CHO cell culture media by inmmunoaffinity chromatography and maintained in a solution containing 0.1 M Tris-glycine (pH 7.5), 0.1 M NaCl, 5 mM EDTA, 1 mM PMSF, […] NaN3 and 10 μg/mL leupeptin. Calcein-AM was purchased from Molecular Probes Inc.
VLA-4 (α4β1 integrin) antagonist activity, defined as ability to compete with cell-surface VLA-4 for binding to immobilized VCAM-1, was quantitated using a Ramos-VCAM-1 cell adhesion assay. Ramos cells bearing cell-surface VLA-4, were labeled with a fluorescent dye (Calcein-AM) and allowed to bind VCAM-1 in the presence or absence of test compounds. A reduction in fluorescence intensity associated with adherent cells (% inhibition) reflected competitive inhibition of VLA-4 mediated cell adhesion by the test compound.
Initially, this entailed coating 96 well plates (Nunc Maxisorp) with recombinant human VCAM-1 (100 ng in 100 μl PBS), sealing each plate and allowing the plates to stand at 4° C. for ≈18 hr. The VCAM-coated plates were subsequently washed twice with 0.05% Tween-20 in PBS, and then blocked for 1 hr (room temperature) with 200 μl of Blocking Buffer (1% BSA/0.02% thimerosal) to reduce non-specific binding. Following the incubation with Blocking Buffer, plates were inverted, blotted and the remaining buffer aspirated. Each plate was then washed with 300 μl PBS, inverted and the remaining PBS aspirated.
Test compounds were dissolved in 100% DMSO and then diluted 1:25 in VCAM Cell Adhesion Assay Buffer (4 mM CaCl2, 4 mM MgCl2 in 50 mM TRIS-HCl, pH 7.5) (final DMSO=4%). A series of eight 1:4 dilutions were performed for each compound (general concentration range of 1 nM-12,500 nM). 100 μl/well of each dilution was added to the VCAM-coated plates, followed by 100 μl of Ramos cells (200,000 cells/well in 1% BSA/PBS). Plates containing test compounds and Ramos cells were allowed to incubate for 45 min at room temperature, after which 165 μl/well PBS was added. Plates were inverted to remove non-adherent cells, blotted and 300 μl/well PBS added. Plates were again inverted, blotted and the remaining buffer gently aspirated. 100 μl Lysis Buffer (0.1% SDS in 50 mM TRIS-HCl, pH 8.5) was added to each well and agitated for 2 min on a rotary shaking platform. The plates were then read for fluorescence intensity on a Cytofluor 2300 (Millipore) fluorecence measurement system (excitation=485 nm, emission=530 nm). The results are shown in the following Table II, where (A=IC50<100 nM, B=IC50<10000 nM): […]

VLA-4 (α4β1 integrin) [2] = target: T1, VLA-4 (α4β1 integrin); test: VLA-4/VCAM-1 Screening Assay (solid-phase dual antibody ELISA); conditions: Ramos cell-derived VLA-4 binding to immobilized recombinant human VCAM-1
Protocol: VLA-4/VCAM-1 Screening Assay
VLA-4 antagonist activity, defined as ability to compete for binding to immobilized VCAM-1, was quantitated using a solid-phase, dual antibody ELISA. VLA-4 (α4β1 integrin) bound to VCAM-1 was detected by a complex of anti-integrin β1 antibody: HRP-conjugated anti-mouse IgG: chromogenic substrate (K-Blue). Initially, this entailed coating 96 well plates (Nunc Maxisorp) with recombinant human VCAM-1 (0.4 μg in 100 μl PBS), sealing each plate and then allowing the plates to stand at 4° C. for ˜18 hr. […] On the day of assay, all plates were washed twice with VCAM Assay Buffer (200 μl/well of 50 mM Tris-HCl, 100 mM NaCl, 1 mM MnCl2, 0.05% Tween 20; pH 7.4). Test compounds were dissolved in 100% DMSO and then diluted 1:20 in VCAM Assay Buffer supplemented with 1 mg/mL BSA (i.e., final DMSO=5%). A series of 1:4 dilutions were performed to achieve a concentration range of 0.005 nM-1.563 μM for each test compound. 100 μl per well of each dilution was added to the VCAM-coated plates, followed by 10 μl of Ramos cell-derived VLA-4. These plates were sequentially mixed on a platform shaker for 1 min, incubated for 2 hr at 37° C., and then washed four times with 200 μl/well VCAM Assay Buffer. 100 μl of mouse anti-human integrin β1 antibody was added to each well (0.6 μg/mL in VCAM Assay Buffer+1 mg/mL BSA) and allowed to incubate for 1 hr at 37° C. At the conclusion of this incubation period, all plates were washed four times with VCAM Assay Buffer (200 μl/well). A corresponding second antibody, HRP-conjugated goat anti-mouse IgG (100 μl per well @ 1:800 dilution in VCAM Assay Buffer+1 mg/mL BSA), was then added to each well, followed by a 1 hr incubation at room temperature and concluded by three washes (200 μl/well) with VCAM Assay Buffer. Color development was initiated by addition of 100 μl K-Blue per well (15 min incubation, room temp) and terminated by addition of 100 μl Red Stop Buffer per well. All plates were then read in a UV/Vis spectrophotometer at […]. Results were calculated as % inhibition of total binding (i.e., VLA-4+VCAM-1 in the absence of test compound). The results are provided in the following Table I (A=IC50<1 nM, B=IC50<10 nM): […]

T1 sequence (P13612 34-1032): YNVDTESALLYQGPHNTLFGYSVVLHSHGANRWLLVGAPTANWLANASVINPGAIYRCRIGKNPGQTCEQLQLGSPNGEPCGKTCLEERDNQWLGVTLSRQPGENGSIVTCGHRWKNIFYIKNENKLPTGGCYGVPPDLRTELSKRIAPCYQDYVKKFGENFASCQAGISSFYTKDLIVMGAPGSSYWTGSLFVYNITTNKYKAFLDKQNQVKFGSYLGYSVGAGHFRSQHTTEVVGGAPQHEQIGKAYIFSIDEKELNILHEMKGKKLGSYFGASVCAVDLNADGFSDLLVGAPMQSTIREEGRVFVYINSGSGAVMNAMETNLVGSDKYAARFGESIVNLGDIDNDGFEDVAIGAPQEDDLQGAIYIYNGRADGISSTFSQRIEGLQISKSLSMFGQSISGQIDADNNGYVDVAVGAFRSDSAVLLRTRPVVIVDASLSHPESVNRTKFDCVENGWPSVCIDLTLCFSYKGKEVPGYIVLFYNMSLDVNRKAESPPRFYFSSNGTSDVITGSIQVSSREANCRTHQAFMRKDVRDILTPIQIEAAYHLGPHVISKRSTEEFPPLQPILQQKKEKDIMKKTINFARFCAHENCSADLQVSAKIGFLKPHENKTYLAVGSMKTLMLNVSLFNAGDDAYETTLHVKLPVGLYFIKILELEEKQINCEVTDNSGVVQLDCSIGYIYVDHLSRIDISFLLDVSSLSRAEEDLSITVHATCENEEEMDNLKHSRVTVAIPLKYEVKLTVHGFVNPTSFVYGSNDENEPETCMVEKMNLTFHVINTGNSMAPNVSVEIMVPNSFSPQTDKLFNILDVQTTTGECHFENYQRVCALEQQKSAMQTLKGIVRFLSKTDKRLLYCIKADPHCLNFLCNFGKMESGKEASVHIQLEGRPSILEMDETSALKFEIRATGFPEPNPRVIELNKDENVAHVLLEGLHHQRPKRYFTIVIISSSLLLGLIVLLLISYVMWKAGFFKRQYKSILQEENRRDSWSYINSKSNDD
T1 sequence (P05556 21-798): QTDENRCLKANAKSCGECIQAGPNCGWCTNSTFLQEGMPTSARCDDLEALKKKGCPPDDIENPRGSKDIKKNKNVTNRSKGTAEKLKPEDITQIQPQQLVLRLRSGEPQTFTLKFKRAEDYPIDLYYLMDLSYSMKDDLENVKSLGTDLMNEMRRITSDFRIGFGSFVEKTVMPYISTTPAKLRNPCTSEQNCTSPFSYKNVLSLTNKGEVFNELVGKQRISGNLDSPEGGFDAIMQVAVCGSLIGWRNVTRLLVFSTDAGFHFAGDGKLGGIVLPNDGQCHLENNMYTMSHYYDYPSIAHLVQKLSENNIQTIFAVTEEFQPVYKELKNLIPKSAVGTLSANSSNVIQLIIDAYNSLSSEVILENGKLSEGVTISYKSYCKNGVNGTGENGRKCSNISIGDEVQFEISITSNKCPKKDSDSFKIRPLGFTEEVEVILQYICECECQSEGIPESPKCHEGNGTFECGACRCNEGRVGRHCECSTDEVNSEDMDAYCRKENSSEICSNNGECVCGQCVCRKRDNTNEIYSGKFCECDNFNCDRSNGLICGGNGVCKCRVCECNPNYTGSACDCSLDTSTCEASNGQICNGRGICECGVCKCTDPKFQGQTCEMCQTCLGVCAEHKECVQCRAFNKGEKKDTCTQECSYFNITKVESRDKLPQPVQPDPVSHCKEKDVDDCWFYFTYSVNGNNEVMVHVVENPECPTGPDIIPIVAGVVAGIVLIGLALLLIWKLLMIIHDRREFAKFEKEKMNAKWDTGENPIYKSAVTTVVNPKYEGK

Row | Compound | IC50 (VLA-4 (α4β1 integrin) [1]) [nM] | melting point [°C] | IC50 (VLA-4 (α4β1 integrin) [2]) [nM]
1 | CC(=O)OC(C)OC(=O)[C@H](Cc1ccc(-c2c(C)n(C)c(=O)n(C)c2=O)cc1)NC(=O)c1c(C)cccc1Cl (stereo partly drawn) [Example 34, N-[(2-chloro-6-methylphenyl)carbonyl]-4-(1,3,6-trimethyl-2,4-dioxo-5-pyrimidinyl)-L-phenylalanine 1-(acetoxy)ethyl ester] | < 10000 | 84 to 88 | 
2 | COCCC1(C(=O)N[C@@H](Cc2ccc(-c3cn(C)c(=O)n(C)c3=O)cc2)C(=O)O)CCCC1 [Example 3, 4-[(1,3-dimethyl-2,4-dioxo-5-pyrimidinyl)]-N-[[1-(2-methoxyethyl)cyclopentyl]carbonyl]-L-phenylalanine] | < 100 |  | < 10
3 | Cc1c(-c2ccc(C[C@H](NC(=O)[C@@H]3CCCN3)C(=O)O)cc2)c(=O)n(C)c(=O)n1C [Example 35, L-prolyl-4-(1,3,6-trimethyl-2,4-dioxo-5-pyrimidinyl)-L-phenylalanine] | < 100 |  | 
4 | COc1ccc(Br)c(C(=O)N[C@@H](Cc2ccc(-c3cn(C)c(=O)n(C)c3=O)cc2)C(=O)O)c1 [Example 5, N-[(2-bromo-5-methoxyphenyl)carbonyl]-4-[1,3-dimethyl-2,4-dioxo-5-pyrimidinyl]-L-phenylalanine] | < 10000 |  | < 1
5 | CC(=O)OC(C)OC(=O)[C@H](Cc1ccc(-c2c(C)n(C)c(=O)n(C)c2=O)cc1)NC(=O)c1c(Cl)cccc1Cl (stereo partly drawn) [Example 33, N-[(2,6-dichlorophenyl)carbonyl]-4-(1,3,6-trimethyl-2,4-dioxo-5-pyrimidinyl)-L-phenylalanine 1-(acetoxy)ethyl ester] | < 10000 | 168 to 170 | 
6 | Cc1cccc(Br)c1C(=O)N[C@@H](Cc1ccc(-c2cn(C)c(=O)n(C)c2=O)cc1)C(=O)O [Example 4, N-[(2-bromo-6-methylphenyl)carbonyl]-4-(1,3-dimethyl-2,4-dioxo-5-pyrimidinyl)-L-phenylalanine] | < 100 |  | < 1

The remaining lines, values ahead:

Row | IC50 (VLA-4 (α4β1 integrin) [1]) [nM] | melting point [°C] | IC50 (VLA-4 (α4β1 integrin) [2]) [nM] | Compound
7 | < 100 |  |  | CCN(CC)CCOC(=O)[C@H](Cc1ccc(-c2c(C)n(C)c(=O)n(C)c2=O)cc1)NC(=O)c1c(Cl)cccc1Cl [Example 28, N-[(2,6-dichlorophenyl)carbonyl]-4-(1,3,6-trimethyl-2,4-dioxo-5-pyrimidinyl)-L-phenylalanine 2-[(N,N-diethyl)amino]ethyl ester]
8 | < 10000 |  |  | CCOC(=O)[C@H](Cc1ccc(-c2c(C)n(C)c(=O)n(C)c2=O)cc1)NC(=O)c1c(C)cccc1Cl [Example 30, N-[(2-chloro-6-methylphenyl)carbonyl]-4-(1,3,6-trimethyl-2,4-dioxo-5-pyrimidinyl)-L-phenylalanine ethyl ester]
9 | < 10000 | 90 to 94 |  | Cc1c(-c2ccc(C[C@H](NC(=O)c3c(Cl)cccc3Cl)C(=O)OCCN3CCOCC3)cc2)c(=O)n(C)c(=O)n1C [Example 31, N-[(2,6-dichlorophenyl)carbonyl]-4-(1,3,6-trimethyl-2,4-dioxo-5-pyrimidinyl)-L-phenylalanine 2-(4-morpholino)ethyl ester]
10 | < 100 |  |  | CCN(CC)CCOC(=O)[C@H](Cc1ccc(-c2c(C)n(C)c(=O)n(C)c2=O)cc1)NC(=O)c1c(C)cccc1Cl [Example 29, N-[(2-chloro-6-methylphenyl)carbonyl]-4-(1,3,6-trimethyl-2,4-dioxo-5-pyrimidinyl)-L-phenylalanine 2-[(N,N-diethyl)amino]ethyl ester]
11 |  | 205 to 209 |  | Cc1c(-c2ccc(C[C@H](NC(=O)c3c(Cl)cccc3C(C)C)C(=O)O)cc2)c(=O)n(C)c(=O)n1C [Example 17, N-[[2-chloro-6-(2-methylethyl)phenyl]carbonyl]-4-(1,3,6-trimethyl-2,4-dioxo-5-pyrimidinyl)-L-phenylalanine]
12 | < 10000 |  |  | Cc1cccc(Cl)c1C(=O)N[C@@H](Cc1ccc(-c2c(C)n(C)c(=O)n(C)c2=O)cc1)C(=O)OCCN1CCOCC1 [Example 32, N-[(2-chloro-6-methylphenyl)carbonyl]-4-(1,3,6-trimethyl-2,4-dioxo-5-pyrimidinyl)-L-phenylalanine 2-(4-morpholino)ethyl ester]
13 | < 100 | 234 to 236 | < 1 | Cc1cccc(Cl)c1C(=O)N[C@@H](Cc1ccc(-c2cn(C)c(=O)n(C)c2=O)cc1)C(=O)O [Example 2, N-[(2-chloro-6-methylphenyl)carbonyl]-4-(1,3-dimethyl-2,4-dioxo-5-pyrimidinyl)-L-phenylalanine]
